The series deals with Hic-5. The experiment in a line: Condition 8: Hic-5 expression by RT-PCR, human HSCs, ASO 5 µM without transfection reagent, 72 hours. Format: cell-based. Conditions: ratio, mean±SEM.

From patent EP4733400A1, “ANTISENSE OLIGONUCLEOTIDE TARGETING HIC-5” (SHOWA Medical University, priority 2023, dated 2025) come the findings set out here.

{TEG-Chol} = cholesterol attached via TEG linker; l = locked nucleic acid (LNA); {Toco} = tocopherol conjugate; d = 2'-deoxy (DNA)

Turning to “H26_cho: modified at the 5' end of H26 with TEG-cholesterol; GCTCGTGGAAACCCTC; LNA 1-3,14-16; SEQ ID NO 458 (sugars from the 5' end l3 d10 l3, 5' {TEG-Chol}, backbone and methylation of C not given here)”, the “Expression Inhibition Rate (4) Condition 8 (n=2)” value was found to be 0.161±0.110.

“H26_toco: modified at the 5' end of H26 with tocopherol; GCTCGTGGAAACCCTC; LNA 1-3,14-16; SEQ ID NO 459 (sugars from the 5' end l3 d10 l3, 5' {Toco}, backbone and methylation of C not given here)”: the “Expression Inhibition Rate (4) Condition 8 (n=2)” value was 0.738±0.010.
